Where a name gives a salt, the structure may show the parent alone.

The melting point is the temperature of the solid-liquid transition.

For series [1], the system named is experimental seizures in animal models. The conditions noted are these: cited from earlier work; for effect in experimental seizures: seizures elicited by pentylenetetrazol, pilocarpine, NMDA and kainic acid.
For series [2], the system named is PTZ-induced seizures in 12- and 25-day-old rats. Put plainly: PTZ-induced generalized tonic-clonic seizures in immature rats. Type of series: in vivo, rat. As for the experimental part: Anticonvulsant effect of compounds was evaluated in two models of epileptic seizures in immature rats (PTZ model and 6 Hz model). PTZ convulsions were tested in 12- and 25-day-old rats, 6 Hz-induced seizures in 15- and 25-day-old rats. Young adult rats (P60) were also used in either test. Day of birth was taken as P0. Experiments evaluating precognitive effect were performed in adult male rats of the Wistar and Long Evans strain (3 months old, b.w. 300-400 g). All animals were obtained from a breeding facility of Institute of Physiology CAS (certificate No. 1396/2014-MZE-17214) Animals were held in standard conditions (21±1° C., humidity 50-60%, light regime 12/12) with unrestricted access to food and water. All manipulations with animals were performed according to the https://nc3rs.org.uk/arrive-guidelines and to Czech Animal Protection Law 246/1992 Sb. And international directives (EU Directive 2010/63/EU for animals' experiments).
Two age groups of immature male Wistar rats were used in either experiment. In PTZ model P12 corresponding by a maturation of the brain to early postnatal human babies, i.e. to the period where children epileptic encephalopathy mostly resistant to present pharmacotherapy start to appear. The other group—P25 animals corresponds with school-age children. Generalized tonic-clonic seizures were elicited by a subcutaneous injection of PTZ in a dose of 100 mg/kg. The 6 Hz model was tested in P15 (at this age eyes are open and it is not necessary to surgically distract lids). Biphasic pulses with […] were applied transcorneally for 3 s by a constant current stimulator of Ugo Basile company. PTZ induced generalized seizures represent a model of human generalized tonic-clonic seizures, seizures elicited by 6 Hz stimulation are generally taken as a model of temporal (psychomotor, complex partial) seizures. Differences in latencies and seizure severity were evaluated by ANOVA with a subsequent pairwise comparison by Holm-Sidak test. Incidence of seizures were evaluated by Fischer exact test. Critical p value was set at p=0.05.
Anticonvulsant effect was studied in 12- and 25-day-old male Wistar rats. Steroid derivatives were administered at doses of 1, 5 and 10 mg/kg i.p. 20 min before the administration of PTZ (100 mg/kg s.c.).

Series [3] deals with PTZ-induced seizures in zebrafish (Danio rerio). As to the kind of experiment: pentetrazol (PTZ)-induced seizures in zebrafish larvae. It counts as in vivo. The conditions noted are these: 7 dpf larvae, PTZ 5 mmol/L; for epileptiform locomotor activity in the dark phase/light test, sedation: doses of 1, 3 and 5 mg/kg; for locomotor activity epileptiform induced by PTZ (spontaneous locomotor activity, maximum velocity, angle turns): doses of 1, 3 and 5 mg/kg (1, 3 and 5 μmol/L in the source). As for the experimental part: Adults wild-type (strain AB) zebrafish (Danio rerio) were maintained at 28-29° C. on a light cycle of 14 h light:10h dark (lights on at 7 am; lights off at 9 pm) at ZeClinics animal facility (Barcelona). All procedures involving animals and their care were conducted accordingly to CEA-OH/9421/2 authorization from Government of Catalonia. Embryos obtained by pairwise mating were raised in E3 media at the controlled temperature of 28.5° C. until 7 days post-fertilization (dpf) when the experiments were performed.
The anticonvulsant activity of the claimed compounds on the nervous system of zebrafish (Danio rerio). This test is the modern alternative to tests in adult animals as Danio rerio is very versatile organism that has a number of physiological similarities to mammals, including humans (Expert Opin. Drug Metab. Toxicol. 2009, 5, 393). Steroidal compounds were tested in three concentrations (1, 3 and 5 μmol.L^−1) on 7 days post-fertilization (dpf) wild-type larvae. As a negative control, sibling larvae were incubated with DMSO 1%, which allows us to detect behavioral alterations of PTZ treated larvae. Seizures were induced by treatment of pentetrazol (PTZ) at the dose 5 mmol.L^−1. Commercially available anti-convulsant drug Topiramate was used as comparator. Results were analyzed with GraphPad Prism software and statistical significance is assessed by the One-way ANOVA statistical analysis followed by Tukey's multiple comparisons test. The zebrafish larvae locomotion and response to visual stimuli are traced and analyzed by the EthoVision XT 12 software and the DanioVision device from Noldus Information Technologies, Wageningen, The Netherlands.
This closed system consists of a camera placed above a chamber with circulating water and a temperature sensor that is set at 28° C. Individualized larvae in a 48-wells plate are placed in the chamber, which can provide different stimuli (light/dark environment, tapping, sound) controlled by the software. Prior to each experiment, larvae were left for 10 minutes in dark for acclimation, then predetermined series of alternating dark and light environment are presented to the larvae. The final experimental protocol is divided in three main part: first a 15 minutes step with light on, then a series of 5 short flashes of light to induce epileptic seizures and finally a 25 minutes dark/light alternating environments phase. Different sets of information can be extrapolated from the different phases: while the first step is useful to detect changes in the total larvae locomotion, the second part allows us to analyze the larval response to a seizure-inducing visual stimulus and measure the seizure characteristics: the maximum velocity and the number of angles turns (specific of seizure erratic movement). The final phase is useful to detect anomalies in larval movement and deviations from the stereotyped behavior (natural locomotor behavior of zebrafish is active in dark and immobile in light). The anticonvulsant effect of compounds was studied at doses of […] for the compound shown in Example 1, Example 2 and Example 3.

Series [4] has as its system adults and children. The conditions noted are these: clinical studies; cited from earlier work.
Setting [5] is: both age groups (P12, P25), 5 and 10 mg/kg i.p.

As for `C[C@H]1CC[C@H]2[C@@H]3CC[C@@H]4C[C@H](OC(=O)C5CCC(=O)N5)CC[C@]4(C)[C@H]3CC[C@]12C` (stereo partly shown), the melting point fell in the range of 157 to 158 °C.

For `C/C=C1/CC[C@H]2[C@@H]3CC[C@@H]4C[C@H](OC(=O)C5CCC(=O)N5)CC[C@]4(C)[C@H]3CC[C@]12C` (stereo partly shown), the melting point was 155 to 157 °C.

In the case of `C[C@@]12CCC[C@H]1[C@@H]1CC[C@@H]3C[C@H](OCCOC(=O)C4CCC(=O)N4)CC[C@]3(C)[C@H]1CC2` (stereo partly shown), the melting point was in the range of 110 to 111 °C.

Compound `C[C@@]12CCC[C@H]1[C@@H]1CC[C@@H]3C[C@H](OCCOC(=O)C4CCCC(=O)N4)CC[C@]3(C)[C@H]1CC2` (stereo partly shown) returned a melting point of 117 to 119 °C.

`CC(=O)[C@H]1CC[C@H]2[C@@H]3CC[C@@H]4C[C@H](OC(=O)C5CCC(=O)N5)CC[C@]4(C)[C@H]3[C@H](O)C[C@]12C` (stereo partly shown) showed a melting point of 183 to 185 °C.

`C[C@@]12CCC[C@H]1[C@@H]1CC[C@@H]3C[C@H](OC(=O)C4CCC(=O)N4)CC[C@]3(C)[C@H]1CC2` (stereo partly shown) registered a melting point of 136 to 137 °C.

For the compound `C[C@]12CC[C@@H](OC(=O)C3CCC(=O)N3)C[C@H]1CC[C@@H]1[C@@H]2CC[C@]2(C)C(=O)CC[C@@H]12` (stereo partly shown), the melting point lay in the range of 114 to 116 °C.

In turn, `C[C@@]12CCC[C@H]1[C@@H]1CC[C@@H]3C[C@H](OC(=O)C4CCCC(=O)N4)CC[C@]3(C)[C@H]1CC2` (stereo partly shown) displayed a melting point of 109 to 111 °C.

`C[C@]12CC[C@@H](OC(=O)C3CCCC(=O)N3)C[C@H]1CC[C@@H]1[C@@H]2CC[C@]2(C)[C@@H](C#N)CC[C@@H]12` (stereo partly shown) yielded a melting point of 69 to 71 °C.

`CC(=O)NCC(=O)O[C@@H]1CC[C@@]2(C)[C@H](CC[C@@H]3[C@@H]2CC[C@]2(C)[C@@H](C(C)=O)CC[C@@H]32)C1` registered a melting point of 111 to 113 °C.

As for `CC(=O)[C@H]1CC[C@H]2[C@@H]3CC[C@H]4C[C@H](O)CC[C@]4(C)[C@H]3CC[C@]12C` [ALLO, 20-oxo-5α-pregnan-3α-ol], in series [1] (animal models of epilepsy), the “frequency of seizures, mortality and cellular death” value was “deceases frequency of seizures, mortality and cellular death”. Moreover, the “effect in experimental seizures” value in series [1] is listed as “significant effect”.

For the compound `CC(=O)[C@H]1CC[C@H]2[C@@H]3CC[C@H]4C[C@@H](OC(=O)[C@@H]5CCC(=O)N5)CC[C@]4(C)[C@H]3CC[C@]12C` [Allopregnanolone (S)-5-oxopyrrolidin-2-carboxylate, reference compound], in series [2] (PTZ 100 mg/kg s.c., 12- and 25-day-old rats), the “action against generalized tonic-clonic seizures” value was “only a moderate action”.

For `CC(=O)[C@H]1CC[C@H]2[C@@H]3CC[C@@H]4C[C@H](OC(=O)C5CCCC(=O)N5)CC[C@]4(C)[C@H]3CC[C@]12C` (stereo partly drawn) [Example 2, (3R,5R,8R,9S,10S,13S,14S,17S)-17-Acetyl-10,13-dimethylhexadecahydro-1H-cyclopenta[a]phenantren-3-yl 6-oxopiperidine-2-carboxylate], in series [2] (setting [5]), the “incidence of GTCS” value is reported as “suppressed significantly” and the seizure severity result is recorded as “suppressed significantly”. Further, in series [3], the “epileptiform locomotor activity in the dark phase/light test, sedation” value is “decreased epileptiform locomotor activity in the dark phase/light test without causing sedation” and the “locomotor activity epileptiform induced by PTZ (spontaneous locomotor activity, maximum velocity, angle turns)” value was “significantly reduced the locomotor activity epileptiform induced by PTZ”.

Consider `C[C@]12CC[C@@H](OC(=O)C3CCC(=O)N3)C[C@H]1CC[C@@H]1[C@@H]2CC[C@]2(C)[C@@H](C#N)CC[C@@H]12` (stereo partly drawn) [Example 3, (3R,5R,8R,9S,10S,13S,14S,17S)-17-Cyano-10,13-dimethylhexadecahydro-1H-cyclopenta[a]phenanthren-3-yl 5-oxopyrrolidine-2-carboxylate], for which the “incidence of GTCS” value in series [2] (P12 rats, 1, 5, 10 mg/kg i.p.) is “significantly affected only by the 5-mg/kg dose”; in series [2] (P25 rats, 5 and 10 mg/kg i.p.) it was “suppressed incidence of GTCS”. For the same compound, the “epileptiform locomotor activity in the dark phase/light test, sedation” value in series [3] is given as “decreased epileptiform locomotor activity in the dark phase/light test without causing sedation”. Further, the “locomotor activity epileptiform induced by PTZ (spontaneous locomotor activity, maximum velocity, angle turns)” value in series [3] is listed as “significantly reduced the locomotor activity epileptiform induced by PTZ”.

Regarding `CC(=O)[C@H]1CC[C@H]2[C@@H]3CC[C@H]4C[C@](C)(O)CC[C@]4(C)[C@H]3CC[C@]12C` [Ganaxolone], in series [4], the tolerability entry is listed as “good tolerability in adults as well as children”. Further, in series [1] (rodents), the generation of seizures entry is “able to prevent generation of seizures in rodents”.

Turning to `CC(=O)[C@H]1CC[C@H]2[C@@H]3CCC4=C[C@@H](OC(=O)[C@@H]5CCCN5)CC[C@]4(C)[C@H]3CC[C@]12C` [PI-33, 3β-L-proline-progesterone-HCl, reference compound], the “incidence of generalized tonic-clonic seizures” value in series [2] (1 and 10 mg/kg doses) is recorded as “did not change incidence of generalized tonic-clonic seizures”.

Turning to `CC(=O)[C@H]1CC[C@H]2[C@@H]3CCC4=CC(=O)CC[C@]4(C)[C@H]3CC[C@]12C` [PROG, pregn-4-en-3,20-dione], the “effect in experimental seizures” value in series [1] is “significant effect”.

These data come from US20220162257A1, “3ALPHA, 5BETA-NEUROACTIVE STEROIDS FOR THE TREATMENT OF EPILEPSY AND SEIZURE DISEASES” (USTAV ORGANICKE CHEMIE A BIOCHEMIE AV CR, V. V. I., priority 2019, published 2022).
